Converted amounts (≈) assume the structure as drawn. Marks after values point to notes of the source that are not given here. Starred links: 1 amine or outer side, 2 acyl side, 3 side chain; linkers in the order of their positions; H or OH if unused. Non-standard residues stand in square brackets, D forms with d. Residues, ends and D or L forms follow the SMILES beside them. X1 = O=C([C@H]1C[C@]2(O)c3ccccc3N[C@@H]2N1[*:1])[*:2]
Assays:
Mycobacterium marinum = system: Mycobacterium marinum; parameters: method as in Hou et al. [2019b]; settings: previous research; positive controls rifampin, streptomycin, isoniazid; ref Hou et al. [2019b]; cited from earlier work
[1] = system: Mycobacterium tuberculosis H37Ra (ATCC 25,177); settings: reported data; ref Hou et al. 2019; cited from earlier work
Text: Supplement 42995_2022_157_MOESM1_ESM.docx, table 2: Table S2. Antitubercular activity of compounds 1, 8−19 and previously reported 2, 20−23 against Mycobacterium tuberculosis H37Ra | column: MICs (μmol/L)

[2] = system: Mycobacterium tuberculosis H37Ra (ATCC 25,177); assay: microbe, parasite or virus in culture; assay type: cell-based; settings: microplate Alamar Blue assay; for inhibitory activity against M. tuberculosis H37Ra at a single concentration: at a concentration of 100 μg/mL
Procedure: Anti-mycobacterial activity was determined against Mycobacterium tuberculosis H37Ra (ATCC 25,177) in a microplate Alamar Blue assay system (Collins et al. [1997]). The anti-tubercular drug rifampin was used as a positive control.

Q: With asperversiamide B [Compound 2] as the molecule, how does the “minimum inhibitory concentrations (MICs) against Mycobacterium marinum” value (“minimum inhibitory concentrations (MICs)” for short) (Mycobacterium marinum) read?
A: The value was 81.2 µM.

Q: What about the “MICs (μmol/L) against Mycobacterium tuberculosis H37Ra” value [1] of the same molecule?
A: The value was 100 ^b μmol/L.

Q: With CC(C)[C@H]1NC(=O)[C@H](Cc2ccccc2)NC(=O)[C@@H](C(C)C)NC(=O)[C@@H](C)NC(=O)[C@H](CO)NC(=O)[C@@H](Cc2c[nH]c3ccccc23)NC(=O)[C@@H](CO)NC1=O [Compound 1, asperversiamide A] (cyclo([dV][dS][dW]S[dA][dV]F)) as the molecule, how does the “MICs (μg/mL) against Mycobacterium tuberculosis H37Ra” value (“MICs (μg/mL)” below) ([2]; rifampin as positive control) read?
A: The value was over 100 µg/mL.

Q: And the “minimum inhibitory concentrations (MICs)” value (Mycobacterium marinum)?
A: Its value is 23.4 µM (≈ 18.2 µg/mL).

Q: Which “minimum inhibitory concentrations (MICs)” value (Mycobacterium marinum) does the source give for NNC(=O)c1ccncc1 [isoniazid, reference compound] here?
A: Its value is 88.5 µM (≈ 12.1 µg/mL).

Q: With CC(C)[C@H]1NC(=O)[C@H](Cc2ccccc2)NC(=O)[C@@H](C(C)C)NC(=O)[C@@H](C)NC(=O)[C@H](C)NC(=O)[C@H]2C[C@]3(O)c4ccccc4N[C@@H]3N2C(=O)[C@@H](CO)NC1=O [Compound 9] (cyclo([X1]A[dA][dV]F[dV][dS])) as the molecule, how does the “inhibitory activity against M. tuberculosis H37Ra at a single concentration” value [2] read?
A: The value was “None of them showed obvious inhibitory activity”.

Q: And the “MICs (μg/mL)” value ([2]; rifampin as positive control)?
A: The value was over 100 µg/mL.

Q: For CC(C)[C@H]1NC(=O)[C@H](Cc2ccccc2)NC(=O)[C@@H](C(C)C)NC(=O)[C@@H](C)NC(=O)[C@H](CO)NC(=O)[C@H]2C[C@]3(O)c4ccccc4N[C@@H]3N2C(=O)[C@@H](CO)NC1=O [Compound 8, asperpyrroindotide A] (cyclo([X1]S[dA][dV]F[dV][dS])), which “inhibitory activity against M. tuberculosis H37Ra at a single concentration” value [2] is on record?
A: Its value is “None of them showed obvious inhibitory activity”.

Q: And the “MICs (μg/mL)” value ([2]; rifampin as positive control)?
A: The value was over 100 µg/mL.

Q: For [H]/N=C(/N)N[C@H]1[C@H](O)[C@@H](O)[C@H](O[C@@H]2O[C@@H](C)[C@](O)(C=O)[C@H]2O[C@@H]2O[C@@H](CO)[C@H](O)[C@@H](O)[C@@H]2NC)[C@@H](N/C(N)=N\[H])[C@@H]1O [streptomycin, reference compound], which “minimum inhibitory concentrations (MICs)” value (Mycobacterium marinum) is on record?
A: The value was 20.1 µM (≈ 11.7 µg/mL).

Q: With CO[C@H]1/C=C/O[C@@]2(C)Oc3c(C)c(O)c4c(O)c(c(/C=N/N5CCN(C)CC5)c(O)c4c3C2=O)NC(=O)/C(C)=C\C=C\[C@H](C)[C@H](O)[C@@H](C)[C@@H](O)[C@@H](C)[C@H](OC(C)=O)[C@@H]1C [rifampin, reference compound] as the molecule, how does the MIC ([2]; Mycobacterium tuberculosis, rifampin as positive control, read-out: MICs (μg/mL) against Mycobacterium tuberculosis H37Ra) read?
A: Its MIC is 0.0156 µg/mL (≈ 0.019 µM).

Q: And the “minimum inhibitory concentrations (MICs)” value (Mycobacterium marinum)?
A: Its value is 19.0 µM (≈ 15.6 µg/mL).

Q: With asperversiamide C [Compound 3] as the molecule, how does the “minimum inhibitory concentrations (MICs)” value (Mycobacterium marinum) read?
A: The value was 87.5 µM.
